Tested on: microglia
Type: in vivo, mouse
Details: healthy mice, 14 days, FIG. 12
Procedure: FIGS. 12A-E. Effects of acivicin on microglia, macrophage and whole blood cell numbers. a, Representative images showing morphology and density of primary microglia treated with vehicle or acivicin for 48 h stained with nuclei marker Hoechst or CellMask Red Whole Cell Stain. Quantification of the total number of microglia. Data are representative of one experiment with technical replicates (open symbols). b, Representative confocal images showing morphology and density of control- and acivicin-treated BMDMs treated for 24 h. Scale bar, 100 μm. Insets depict digitally zoomed in areas of regions of interest. Quantification of the total number of BMDMs in the field of view. […] Cell viability of single CD45^+ cells was assessed by Sytox blue live/dead nuclei stain. Quantification of percent cell viability of CD45^+ BMDMs treated with acivicin or left untreated. Data are from 2 independent experiments with n=4 mice per group (mean±s.d.). d, Quantification of complete blood count analysis of white blood cells (WBCs), red blood cells (RBC), platelets (PLT) (left) and composition of WBCs (right) of blood samples from healthy mice treated with saline or acivicin for 10 days. […] Quantification of total microglia cell numbers in healthy mice treated with acivicin or saline. […]

SMILES: N[C@H](C(=O)O)[C@@H]1CC(Cl)=NO1 [Acivicin, (2S)-2-amino-2-[(5S)-3-chloro-4,5-dihydro-1,2-oxazol-5-yl] acetic acid]
- microglia numbers in the spinal cord in vivo: did not affect

— US20210330611A1, “THERAPY FOR NEUROLOGICAL DISEASES/DISORDERS” (priority 2020, published 2021)
